Reference: paper PMC3562233 (PLoS ONE, 2013)
Several values for one entry are separate records, joined by “and”; a condition that tells them apart may be missing. Equal values may be shown once. Entries after “also recorded” stand apart in the source; their conditions may differ. Where a name gives a salt, the structure may show the parent alone. Read-outs that look alike come from different tables or passages of the source.

How the values were obtained:
WT M2 [1] = molecular target: T1, WT M2 (Influenza A virus, UniProt P0DOF5); test: cell-based; details: for inhibition at 100 µM: read-out: % inhibition at 100 µM in TEVC WT
Target sequence in this assay (P0DOF5 whole entry, looked up): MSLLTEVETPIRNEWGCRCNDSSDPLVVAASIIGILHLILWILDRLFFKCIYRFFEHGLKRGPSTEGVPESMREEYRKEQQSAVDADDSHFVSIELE

in vitro = details: dog
Description: Cytotoxicity towards MDCK cells was assayed after 48 h drug exposure with the MTT tetrazolium dye assay as described [55].

WT M2 [2] = molecular target: T1, WT M2; test: cell-based; parameters: expressed in transfected cells; host or cells: Saccharomyces cerevisiae, multicopy plasmid, GAL1 promoter; details: for growth of the strain expressing WT M2: 27% of control without amantadine, 48 h; for EC50: yeast expressing WT M2, growth measured after 40 h
Target sequence in this assay (P0DOF5 whole entry): as the sequence (P0DOF5 whole entry, looked up) above

[3] = tested on: influenza A/Udorn/72 WT virus; format: cell-based
[4] = molecular target: mammalian Na+/H+ exchanger; parameters: method as in PMID 3016497; details: read-out: apparent Ki; cited from earlier work
M2 channel = tested on: M2 channel; parameters: method as in PMID 20570509; details: weaker than amantadine; cited from earlier work
[5] = read-out: EC50, yeast growth restoration

In the case of “3-(2-methylbut-3-yn-2-yl)-6-(methylthio)-1,2,3,4-tetrahydro-1,3,5-triazine hydroiodide [Compound 27]”, the “% inhibition at 100 µM in TEVC WT” value (WT M2 [1]) is reported as 17.0 ± 1.9.
For `NC12CC3CC(CC(C3)C1)C2` [Amantadine, reference compound], the inhibition at 100 µM (WT M2 [1]) was 92%, the CC50 (in vitro) was ~100000 nM and the “growth of the strain expressing WT M2” value (WT M2 [2]; 0.3 µM amantadine) was 65 % of control. For the same molecule, the “growth of the strain expressing WT M2” value (WT M2 [2]; 1 µM amantadine) was 95 % of control, the growth increase (WT M2 [2]; 1 µM, 384-well plate assay, yeast expressing WT M2) was 3 fold and the “growth of the strain expressing WT M2” value (WT M2 [2]; 3 µM amantadine) was 95 % of control.
In the case of `O=C1NC(=S)NC(=O)C1=CNC12CC3CC(CC(C3)C1)C2` [Compound 1, 5-[(1-adamantylamino)methylene]-2-thioxodihydro-4,6(1H,5H)-pyrimidinedione], the EC50 (WT M2 [2]; [5]) is reported as 2500 nM.
`CC(=O)Nc1ccc(S(=O)(=O)NC23CC4CC(CC(C4)C2)C3)cc1` [Compound 2, N1-(4-[(1-adamantylamino)sulfonyl]phenyl)acetamide] showed an EC50 (WT M2 [2]; [5]) of 5000 nM.
For `c1cc2c(cc1NC1C3CC4CC(C3)CC1C4)OCO2` (centres unmarked) [Compound 3, 2-adamantyl (1,3-benzodioxol-5-yl)amine], the EC50 (WT M2 [2]; [5]) was 20000 nM.
In the case of `O=[N+]([O-])c1ccc(CNC23CC4CC(CC(C4)C2)C3)cc1` [Compound 4, 1-adamantyl (4-nitrobenzyl)amine], the inhibition at 100 µM (WT M2 [1]) is reported as 43.5% and the EC50 (WT M2 [2]; [5]) is reported as 5000 nM.
In the case of `O=[N+]([O-])c1ccccc1CNC1C2CC3CC(C2)CC1C3` (centres unmarked) [Compound 5, 2-adamantyl (2-nitrobenzyl)amine], the EC50 (WT M2 [2]; [5]) is reported as 5000 nM.
In the case of `CC(NC(=S)NC(=O)C=Cc1ccco1)C12CC3CC(CC(C3)C1)C2` (centres unmarked) [Compound 6, N-(([1-(1-adamantyl)ethyl]amino)carbonothioyl)-3-(2-furyl)acrylamide], the “inhibition of plaque formation” value [3] is reported as “almost completely inhibited”, the CC50 (in vitro) is reported as > 30000 nM and the EC50 (WT M2 [2]; EC50, yeast growth restoration) is reported as 200 nM and < 1000 nM.
`CS/C(=N/C#N)NC12CC3CC(CC(C3)C1)C2` [Compound 7, (E)-methyl N-((3s,5s,7s)-adamantan-1-yl)-N'-cyanocarbamimidothioate] showed an EC50 (WT M2 [2]; [5]) of 12000 nM.
For `CNCC(=O)C12CC3CCC(CC(C3)C1)C2` [Compound 8, 2-(methylamino)-1-tricyclo[4.3.1.1~3,8~] undec-1-ylethanone hydrochloride], the EC50 (WT M2 [2]; [5]) was 3000 nM.
In the case of `CCc1noc(C)c1C(=O)NCC12CC3CC(CC(C3)C1)C2` [Compound 9, N-(adamantan-1-ylmethyl)-3-ethyl-5-methyl-1,2-oxazole-4-carboxamide], the EC50 (WT M2 [2]; [5]) is reported as 800 nM and < 1000 nM.
For `Cc1ncc(C23CC4CC(CC(C4)C2)C3)[nH]1` [Compound 10, 5-(adamantan-1-yl) -2-methyl-1H-imidazole], the “inhibition of plaque formation” value [3] was “almost completely inhibited”, the CC50 (in vitro) was > 100000 nM and the EC50 (WT M2 [2]; EC50, yeast growth restoration) was < 1000 nM and 300 nM.
Work on `Cc1cc(C(=O)NC2C3CC4CC(C3)CC2C4)no1` (centres unmarked) [Compound 11, N-(adamantan-2-yl)-5-methyl-1,2-oxazole-3-carboxamide] yielded an EC50 (WT M2 [2]; [5]) of 1500 nM.
For `C1CNC(NCC23CC4CC(CC(C4)C2)C3)=N1` [Compound 12, N-(adamantan-1-ylmethyl)-4,5-dihydro-1H-imidazol-2-amine hydroiodide], the EC50 (WT M2 [2]; [5]) was 400 nM and < 1000 nM.
In the case of `OCC1CCCN1CC12CC3CC(CC(C3)C1)C2` (centres unmarked) [Compound 13, [1-(adamantan-1-ylmethyl)pyrrolidin-2-yl] methanol hydrochloride], the EC50 (WT M2 [2]; [5]) is reported as 15000 nM.
For `NC(N)=NC(=O)c1nc(Cl)c(N2CCCCCC2)nc1N` [Compound 14, Hexamethylene amiloride], the inhibition at 100 µM (WT M2 [1]) is listed as 89.9%, the Ki [4] is listed as 200 nM and the CC50 (in vitro) is listed as 16000 nM. For the same molecule, the EC50 (WT M2 [2]; EC50, yeast growth restoration) was 1100 nM and 1000 nM.
For `C=C1C(N)CC2CC1C2(C)C` (stereo not drawn) [Compound 15, 3-amino-beta-pinene], the EC50 (WT M2 [2]; [5]) was 500 nM and < 1000 nM.
Work on `CSC1=NCN(Cc2ccccc2)CN1` [Compound 18, 3-benzyl-6-(methylthio)-1,2,3,4-tetrahydro-1,3,5-triazine hydroiodide] yielded an inhibition at 100 µM (WT M2 [1]) of 4.5% and an EC50 (WT M2 [2]; [5]) of 12000 nM.
With `Cn1cccc1CNC1CCCCCCC1` [Compound 19, N-[(1-methyl-1H-pyrrol-2-yl)methyl] cyclooctanamine] the EC50 (WT M2 [2]; [5]) was 30000 nM.
For `CN(C)c1nc(N)c(C(=O)NC(=N)N)nc1Cl` [Compound 20, 5-(N,N-Dimethyl)amiloride hydrochloride], the “% inhibition at 100 µM in TEVC WT” value (WT M2 [1]) was “moderate inhibition” and the inhibition at 100 µM (WT M2 [1]) was 23.3 ± 1.9%.
In the case of `CCN(c1nc(N)c(C(=O)NC(=N)N)nc1Cl)C(C)C` [Compound 21, 5-(N-Ethyl-N-isopropyl)amiloride], the “% inhibition at 100 µM in TEVC WT” value (WT M2 [1]) is reported as “moderate inhibition” and the inhibition at 100 µM (WT M2 [1]) is reported as 47.3 ± 0.5%.
For `CSC1=NCN(Cc2cccs2)CN1` [Compound 23, 6-(methylthio)-3-(thiophen-2-ylmethyl)-1,2,3,4-tetrahydro-1,3,5-triazine], the inhibition at 100 µM (WT M2 [1]) was 8.1 ± 1.7%.
For `CCSC1=NCN(Cc2ccco2)CN1` [Compound 24, 6-(ethylthio)-3-(furan-2-ylmethyl)-1,2,3,4-tetrahydro-1,3,5-triazine], the inhibition at 100 µM (WT M2 [1]) was 17.9 ± 2.8%.
In the case of `Br.CSC1=NCN(C(C)(C)C)CN1` [Compound 25, 3-(tert-butyl)-6-(methylthio)-1,2,3,4-tetrahydro-1,3,5-triazine hydrobromide], the “% inhibition at 100 µM in TEVC WT” value (WT M2 [1]) is reported as 13.3 ± 1.5.
With `Br.CSC1=NCN(CCCO)CN1` [Compound 26, 3-(4-(methylthio)-5,6-dihydro-1,3,5-triazin-1(2H)-yl)propan-1-ol hydrobromide] the “% inhibition at 100 µM in TEVC WT” value (WT M2 [1]) was 5.5 ± 0.9.
Work on `CCSC1=NCN(Cc2ccccc2)CN1` [Compound 28, 3-benzyl-6-(ethylthio)-1,2,3,4-tetrahydro-1,3,5-triazine] yielded an inhibition at 100 µM (WT M2 [1]) of 5.4 ± 1.6%.
`CCSC1=NCN(Cc2cccs2)CN1` [Compound 29, 6-(ethylthio)-3-(thiophen-2-ylmethyl)-1,2,3,4-tetrahydro-1,3,5-triazine] gave an inhibition at 100 µM (WT M2 [1]) of 6.7 ± 1.4%.
Work on `CCSC1=NCN(CCc2cccs2)CN1` [Compound 30, 6-(ethylthio)-3-(2-(thiophen-2-yl)ethyl)-1,2,3,4-tetrahydro-1,3,5-triazine] yielded an inhibition at 100 µM (WT M2 [1]) of 1.1 ± 1.1%.
Molecule `CCSC1=NCN(CC(C)C)CN1` [Compound 31, 6-(ethylthio)-3-isobutyl-1,2,3,4-tetrahydro-1,3,5-triazine] has an inhibition at 100 µM (WT M2 [1]) of 1.2 ± 0.6%.
In the case of `CCSC1=NCN(CC(C)(C)C)CN1` [Compound 32, 6-(ethylthio)-3-neopentyl-1,2,3,4-tetrahydro-1,3,5-triazine], the “% inhibition at 100 µM in TEVC WT” value (WT M2 [1]) is reported as 4.7 ± 1.3.
For `CCSC1=NCN(CC2CCCCC2)CN1` [Compound 33, 3-(cyclohexylmethyl)-6-(ethylthio)-1,2,3,4-tetrahydro-1,3,5-triazine], the inhibition at 100 µM (WT M2 [1]) was 63.9 ± 2% and the EC50 (WT M2 [2]; [5]) was 700 nM.
With `CCSC1=NCN(C2CCCCCCC2)CN1` [Compound 34, 3-cyclooctyl-6-(ethylthio)-1,2,3,4-tetrahydro-1,3,5-triazine] the inhibition at 100 µM (WT M2 [1]) was 89.7%, the “inhibition of plaque formation” value [3] was “completely inhibited; also recorded: moderate inhibition” and the CC50 (in vitro) was 75000 nM. The EC50 (WT M2 [2]; EC50, yeast growth restoration) was 300 nM.
For `NC1CCCCCCC1` [Cyclooctylamine], the “binding affinity relative to amantadine” value (M2 channel) is listed as 6 fold.
